Source: patent US8871751B2, “Compositions and methods relating to nuclear hormone and steroid hormone receptors including inhibitors of estrogen receptor alpha-mediated gene expression and inhibition of breast cancer” (The Board of Trustees of the University of Illinois, priority 2008, dated 2014)
Entries after “also recorded” stand apart in the source; their conditions may differ.

What was measured:
ERα [1] = molecular target: T1, ERα (Homo sapiens, UniProt P03372); test: pS2 mRNA induction in MCF7ERαHA cells; assay type: cell-based; set-up: endogenous in cells; details: 10 μM, Dox, 100 pM E2, 24 h
T1 sequence (P03372 1-595): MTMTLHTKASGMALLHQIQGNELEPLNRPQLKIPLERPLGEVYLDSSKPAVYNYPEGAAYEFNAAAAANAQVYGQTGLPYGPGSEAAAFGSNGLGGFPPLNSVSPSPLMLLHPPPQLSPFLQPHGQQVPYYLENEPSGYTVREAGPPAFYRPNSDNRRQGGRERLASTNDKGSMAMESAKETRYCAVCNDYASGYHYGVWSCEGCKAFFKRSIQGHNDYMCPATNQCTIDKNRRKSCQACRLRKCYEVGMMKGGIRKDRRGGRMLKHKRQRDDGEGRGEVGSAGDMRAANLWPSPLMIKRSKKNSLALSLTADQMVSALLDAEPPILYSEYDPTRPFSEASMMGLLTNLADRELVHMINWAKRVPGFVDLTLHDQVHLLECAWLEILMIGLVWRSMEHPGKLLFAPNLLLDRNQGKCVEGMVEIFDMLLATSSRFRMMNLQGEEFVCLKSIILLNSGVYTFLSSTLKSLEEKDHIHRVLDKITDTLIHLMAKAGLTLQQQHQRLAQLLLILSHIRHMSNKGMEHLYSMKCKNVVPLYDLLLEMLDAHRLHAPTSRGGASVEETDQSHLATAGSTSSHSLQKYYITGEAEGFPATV
Description: A model for tamoxifen-resistant breast cancers that overexpress ERα is MCF7ERαHA cells, which is a tetracycline-inducible MCF-7 model in which doxycycline (Dox) induces overexpression of ERα (40,41). In contrast to MCF-7 cells, in these cells Tam and OHT are potent agonists (2,42) and OHT, which stabilizes ERα, induced proteinase inhibitor 9 (PI-9) mRNA and protein more effectively than E2 (2,43). MCF7ERαHA cells were maintained in 10% 6XCD-treated FBS (40,41). All cells were in 0.1% DMSO vehicle and contained the indicated concentrations of TPBM added at the same time as the E2 or OHT. To induce PI-9 mRNA, the cells were treated with 0.5 μg/ml doxycycline to induce ERα and ethanol vehicle, 100 pM E2 or 500 pM OHT for 24 h, mRNA was extracted and PI-9 mRNA levels were determined by quantitative RT-PCR as described (2).
Saturating E2 (100 pM, FIG. 7A) and OHT (500 pM, FIG. 7B) induced PI-9 mRNA by 150 and 500 fold, respectively. […] The less complete inhibition of PI-9 induction in the OHT-treated cells likely results from the ˜4 fold higher level of ERα after OHT treatment than after E2 treatment (FIG. 7C). The PI-9 gene is representative of the many genes that contain complex estrogen response elements including ERE half sites. To confirm that TPBM inhibits expression of an endogenous gene that contains a near consensus ERE we used the pS2 gene. […]

MCF-7 cells = test: E2-dependent growth of MCF-7 cells (MTS); assay type: cell-based, human
Procedure: Assays for Cell Growth and Viability. Cells were maintained in the media listed above containing CD-treated serum for at least 4 days prior to the experiment. To minimize cell aggregation, MCF-7 cells were harvested in 10 mM Hepes, pH 7.4, 1 mM EDTA. Other cell lines were harvested in trypsin-EDTA. 1,000 cells were plated into each well of a 96 well plate. For slow growing ZR-75 cells, 2,000 cells were plated/well. The cells were maintained in medium containing CD-treated serum for 24 hours. At 24 hours the medium was changed and E2 and DMSO vehicle or TPSF in DMSO was added. The medium was replaced after 2 days (except for BT474 cells whose medium was not changed). After 4 days viable cells were determined using a cell viability test, Promega CellTiter 96 Aqueous One Solution Cell Proliferation Assay (MTS) (Promega, Wis.).

NF-κB = test: NF-κB-mediated induction of IL-8 mRNA by TNF-α in MCF-7 cells; assay type: cell-based, human
Procedure: FIG. 14 illustrates results of testing for specific inhibition of E2-ERα-mediated gene expression. The effects of TPSF on an NF-κB regulated gene, IL-8, were tested in MCF-7 cells maintained for 24 hours in medium containing 10 ng/ml TNF-α alone or TNF-α and 30 μM TPSF. RNA was extracted and IL-8 mRNA levels were measured by quantitative (q)RT-PCR. Data shown is the average of 3 experiments±SEM.
(§1) Endogenous Gene Expression. MCF-7 cells or MCF7ERαHA cells were maintained for 4 days in medium containing 5% CD calf serum (MCF-7 cells) or 10% 6×CD-FBS (MCF7ERαHA cells). In assays of TPSF inhibition of PI-9 induction, cells were plated, incubated for 24 hours in the indicated concentrations of TPSF and then maintained 4 hours with and without E2, with and without TPSF. To induce ERα, MCF7ERαHA cells were also maintained in 0.5 μg/ml Dox for 24 hours prior to addition of E2 or OHT with or without TPSF. For induction of cyclin D1, 24 hours after plating the cells, E2 with and without TPSF was added, the cells were maintained for 24 hours, RNA was extracted and mRNA levels were determined by quantitative RT-PCR as described (19, 26). Actin mRNA levels were used as the qRT-PCR internal standard. The primers and sequences used in qRT-PCR were as follows.

ERα [2] = molecular target: T1, ERα; test: Estrogen induction of cyclin D1 mRNA in MCF-7 cells; assay type: cell-based; set-up: endogenous in cells; details: 10 μM, 10 nM E2, 24 h
Procedure: FIG. 15 illustrates results of testing for inhibition of the estrogen induction of Cyclin D1 mRNA. MCF-7 cells were plated and 24 h later treated with ethanol vehicle, 10 nM E2, or 10 nM E2 and 10 μM TPSF. Cells were maintained for 24 hours, RNA was extracted and cyclin D1 mRNA levels were measured by qRT-PCR. Cyclin D1 mRNA levels in the vehicle only sample were set to 1. Data is the average±SEM for 3 experiments each assayed in triplicate.
as §1

reduction of induction of pS2 mRNA (ERα [1]) | induction of pS2 mRNA (ERα [1]; 24±3 fold without TPBM) | IC50 (MCF-7 cells; Homo sapiens, MCF7, 96 h, 1 pM E2, 4 days, MTS, read-out: IC50 for inhibition of E2-dependent growth of MCF-7 cells) | IC50 (NF-κB; Homo sapiens, MCF7, TNF-α, IL-8 mRNA, read-out: IC50 for inhibition of NF-κB gene expression) | SMILES | effect on E2-dependent growth of MCF-7 cells (MCF-7 cells; 7.5 μM) | effect on NF-κB-mediated induction of IL-8 mRNA by TNF-α (NF-κB; 30 μM, 10 ng/ml TNF-α, 24 h) | effect on E2 induction of cyclin D1 mRNA (ERα [2])
50% | 12±2 fold |  |  | Cn1c(=O)c2nc(CSCc3ccccc3)[nH]c2n(C)c1=O [Compound 95910, 8-Benzylsulfanylmethyl-1,3-dimethyl-3,7-dihydro-purine-2,6-dione] |  |  | 
 |  | 2000 nM | > 30 µM | Cn1c(=S)c2[nH]c(SCCCC(=O)c3ccc(F)cc3)nc2n(C)c1=O [TPSF, Butyrophenone, p-fluoro-4-(1,2,3,6,-tetrahydro-1,3-dimethyl-2-oxo-6-thionopurin-8-ylthio)] | completely blocked | no effect; also recorded: absence of an effect | completely inhibited; also recorded: abolished
